From article PMC12175168, “Refining the Amino Reactivity-Based Identification of Respiratory Sensitizers” (Chemical Research in Toxicology, 2025)
Like-named read-outs stand apart in the source and are kept apart here. Marks after values point to notes of the source that are not given here.

Key:
[1] = DPRA-like chemoassay with Lys-pNA (24 h percent depletion); conditions: 25 °C, 50-fold excess of test compound
Method: (§1) In addition to the kinetic Gly-pNA chemoassay, the reactivity of the 27 compounds toward Gly-pNA and Lys-pNA was determined in terms of percentage depletions after reacting for 24 h at 25 °C employing the following DPRA-like setup: stock solutions for the test compounds were prepared by gravimetrically adding at least 3 mg of the respective compound into a glass vial (total volume 1.8 mL) and subsequent addition of 1 mL ACN. […] The stock solutions for Gly-pNA and Lys-pNA with a final concentration of 1.7 mM were prepared by dissolving the required amount in one of the three aqueous buffer solutions used for this DPRA-like chemoassay: phosphate buffer (80 mM, pH 7.4), phosphate buffer (80 mM, pH 10.2), and ammonium acetate buffer (100 mM, pH 10.2). Glass vials (1.8 mL) were used as reaction vessels.
(§2) In the final reaction mixtures, the concentration of Gly-pNA or Lys-pNA was 0.03 mM, and the test compound was 50 times in excess (1.5 mM). After incubation for 24 h at 25 °C, the free amount of either Gly-pNA or Lys-pNA was determined using the HPLC UV–vis method described for the kinetic Gly-pNA chemoassay. , The percentage depletion of Gly-pNA (D Gly) or Lys-pNA (D Lys) was determined directly from peak areas according to eq 3 Dx[%]=(Axcontrol−Ax/Axcontrol×100)withx=GlyorLys
(§3) In eq , A x and A x ^control are the peak areas of the chromatographic signal of either Gly-pNA (x = Gly) or Lys-pNA (x = Lys) at 315 nm after 24 h incubation with and without test compound, respectively.
(§4) Summary of experimental conditions of the DPRA-like setups used to determine
(§5) DGly, D Lys, and D DPRA data in Table 2 (main text).
(§6) Table S2. Overview of experimental conditions for the DPRA-like setups used to
(§7) determine 24 h percentage depletion rates for the reaction of the test compounds with
(§8) Gly-pNA, Lys-pNA, and the DPRA lysine peptide (literature data).

[2] = set-up: method as in our previous work; conditions: PPB pH 7.4, 24 h; ref our previous work; cited from earlier work
[3] = set-up: method as in our previous work; conditions: reaction with Gly-pNA; ref our previous work; cited from earlier work
DPRA lysine peptide = test system: DPRA lysine peptide; set-up: method as in literature; conditions: AAB pH 10.2, 24 h; ref literature; cited from earlier work
[4] = ref Krutz et al., Sadekar et al., Ponder et al., Karol et al., Hopkins et al.; cited from earlier work
[5] = Stability assessment of test compounds in aqueous buffers (half-lives)
Method: To this end, the test compound was dissolved in 1 mL ACN in a glass vial. […] As reaction batches, 1.8 mL glass vials equipped with 400 μL glass inserts were used and filled with 220 μL of the respective aqueous buffer and 80 μL of the test compound stock solution. The depletion of the test compounds was recorded with the HPLC UV–vis instrument used for the kinetic Gly-pNA chemoassay. , Chromatographic separation of the reaction mixture was achieved using the gradient described for the Gly-pNA chemoassay previously , and an isocratic HPLC method (water/ACN 70:30, both with 0.1 vol % formic acid). The wavelengths used for the detection of the compound and the information on the used chromatographic method are given in the Supporting Information in Table S3.

[6] = Kinetic Gly-pNA chemoassay (second-order rate constant k Gly); conditions: reaction with Gly-pNA, nominal test compound concentration; for k Gly ± s(k Gly), second-order rate constant: phosphate buffer 80 mM, 25 °C, ≥ values are minimum reactivity; for log k Gly: phosphate buffer;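 as to all read-outs here: Gly-pNA depletion followed over time by chromatographic peak area, with test compound in at least tenfold excess (pseudo-first-order), added from acetonitrile stock, at least three runs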
Method: The reactivity of the 27 test compounds toward Gly-pNA was quantified in terms of the second-order reaction rate constant k Gly using our Gly-pNA chemoassay. , In brief, stock solutions of the test compound were freshly obtained every day by gravimetrically adding the required amount into a 10 mL volumetric flask, which was subsequently filled to volume with acetonitrile (ACN). The required amounts of test compounds depended on their reactivity toward Gly-pNA. […] As usual for kinetic studies, fast reacting chemicals are applied at lower concentrations than little reactive candidates. All stock solutions were stored at 25 °C in a climate chamber before first use (ca. 30 min) and for repeating an experiment (max. 6 h). Gly-pNA stock solution (1.69 mM) was obtained by dissolving 3.3 mg Gly-pNA in 10 mL phosphate buffer solution (80 mM) and could be used for several weeks if stored at 4 °C. For all chemoassay experiments, 1.8 mL glass vials were used as reaction batches, which were initially filled with 1070 μL phosphate buffer (80 mM) and 30 μL Gly-pNA stock solution. To start the reaction, 400 μL of the test compound stock solutions was added. […] The time between the start of the reaction and the first analysis was measured with an electronic time clock. All reactions were performed under pseudo-1st order conditions with the electrophile being at least ten times in excess over Gly-pNA.
For these compounds, the minimum reactivity was estimated in terms of k Gly by plotting ln (A Gly ^ t /A Gly ^0) vs reaction time t (with A Gly ^ t and A Gly ^0 being the peak areas under the chromatographic signal for Gly-pNA at time t and at the beginning of the reaction (t = 0)). Linear regression through 0 (at t = 0) and the first measurement point yields slope s (see Figure S1) which is the pseudo-1st order rate constant k Gly ^pseudo that can be converted with the initial test compound concentration in the reactions mixture (c) into k Gly according to eq . 1 kGly=kGlypseudo/c
2 Ln(AGlyt/AGly0)≈−kGly·c·t+0.5·kGly·kloss·c·t^2 Here k loss is the first order rate constant covering all processes contributing to the loss of the test compounds, except the reaction with Gly-pNA. The regression parameter of the linear part of eq (= k Gly·c) is the pseudo-1st order rate constant k Gly ^pseudo and can be converted into k Gly according to eq (see above).
Linear regression of these plots provides slope s, which is again the pseudo-1st order rate constant, k Gly ^pseudo, and can be used to calculate k Gly according to eq . All experiments to determine k Gly have been conducted at least three times.

[7] = DPRA-like chemoassay with Gly-pNA (24 h percent depletion); conditions: PPB pH 7.4, 24 h, 25 °C, 50-fold excess of test compound
Method: as §1, §2, §3, §4, §5, §6, §7, §8

[8] = AAB (ammonium acetate buffer) pH 10.2, 24 h
[9] = aqueous ammonium acetate buffer with acetonitrile, pH 10.2
[10] = aqueous phosphate buffer with acetonitrile, pH 7.4
[11] = aqueous phosphate buffer with acetonitrile, pH 10.2

Row | SMILES | D Lys ± s(D Lys), 24 h percent depletion of Lys-pNA [1, 8] | D Lys ± s(D Lys), 24 h percent depletion of Lys-pNA ([1]; PPB pH 10.2, 24 h) | D Gly, 24 h percent depletion of Gly-pNA [2] | k Gly ± s(k Gly), second-order rate constant [3] | log k Gly [3] | D DPRA ± s(D DPRA), depletion of the DPRA lysine peptide (DPRA lysine peptide) | Classification as potential respiratory sensitizer or non-sensitizer [4] | half-life [5, 9] | half-life [5, 10] | half-life [5, 11] | k Gly ± s(k Gly), second-order rate constant [6] | D Gly ± s(D Gly), 24 h percent depletion of Gly-pNA [7] | log k Gly [6] | half-lives t 1/2 ± s(t 1/2) ([5]; PPB (phosphate buffer 80 mM) pH 7.4) | half-life ([5]; buffer, pH 10.2, half-lives t 1/2 ± s(t 1/2), AAP (ammonium acetate buffer 100 mM) pH 10.2) | half-life ([5]; buffer, pH 10.2, half-lives t 1/2 ± s(t 1/2), PPB (phosphate buffer 80 mM) pH 10.2)
1 | O=CCCCC=O [G1, glutaraldehyde] | 7.2 ± 1.7% | 97.9 ± 0.6% | 100 ^c % | 17731 ± 2525 L mol^–1 min^–1 | 4.25 | 82.8 ± 7.6% | – | – | – | – | – | – | – | – | – | –
2 | O=C1OC(=O)c2ccccc21 [C1, phthalic anhydride] | 22.6 ± 7.4% | 100% | – | – | – | 69.2 ± 22.0% | potential respiratory sensitizer | < 1 min | 89.5 ± 4.1 min | < 1 min | ≥22480 ± 1197 L mol^–1 min^–1 | 100% | – | – | – | –
3 | O=C1OC(=O)C2CCCCC12 (centres unmarked) [D1, hexahydrophthalic anhydride] | 12.5 ± 0.5% | 100% | – | – | – | 56.4 ± 29.4% | potential respiratory sensitizer | < 1 min | 4.36 ± 0.36 min | 1.2 min | 2900 ± 110 L mol^–1 min^–1 | 100% | 3.46 | – | – | –
4 | C=CC(=O)OCCCC [F3, butyl acrylate] | 61.3 ± 0.4% | 74.4 ± 1.5% | – | – | – | 87.8 ± 3.8% | non-sensitizer | – | – | – | 0.0826 ± 0.0141 L mol^–1 min^–1 | 15.2 ± 0.2% | –1.08 | no depletion | 929 ± 59 min | 4250 ± 1800 min
